Measured values: patent US11725038B2 (priority 2007, dated 2023)
Numbering of substitutions follows the chain as printed.

What was measured:
[1] = molecular target: T1, mutant (M287L) mouse glycine α1 receptor (Mus musculus, UniProt Q64018, M315L); settings: M287L mutation versus wild-type; cited from earlier work
T1 sequence (Q64018 29-457 M315L): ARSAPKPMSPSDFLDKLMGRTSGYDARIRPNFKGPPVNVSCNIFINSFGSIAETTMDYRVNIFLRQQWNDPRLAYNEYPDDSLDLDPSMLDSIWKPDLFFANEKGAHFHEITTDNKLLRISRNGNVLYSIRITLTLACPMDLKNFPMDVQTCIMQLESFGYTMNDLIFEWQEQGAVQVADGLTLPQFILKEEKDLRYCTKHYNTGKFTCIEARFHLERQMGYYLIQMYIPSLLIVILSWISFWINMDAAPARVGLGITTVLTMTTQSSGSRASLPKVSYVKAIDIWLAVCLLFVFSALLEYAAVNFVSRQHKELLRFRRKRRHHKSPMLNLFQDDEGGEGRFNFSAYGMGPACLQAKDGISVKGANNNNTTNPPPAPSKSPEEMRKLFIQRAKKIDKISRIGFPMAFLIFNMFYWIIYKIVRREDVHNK

[2] = molecular target: T2, vHGlyRα1 infected HEK 293T cells (Homo sapiens, UniProt P23415); assay: glycine-mediated whole-cell currents, voltage-clamp recording; format: cell-based; settings: for mean peak current: 24 hours post-infection, MOI 10; for percent desensitization: 100×(1−ISS/Ipeak)
T2 construct: expressed in transfected cells; host or cells: HEK 293T cells infected with replication-defective HSV vector vHGlyRα1 (HCMV promoter), MOI 10
T2 sequence (P23415 29-457): T1 sequence (Q64018 29-457 M315L) with L287M, D334E, G337A, N368S, K429Q
Protocol: (§1) Human embryonic kidney (HEK) 293T cells were maintained as previously described (Qian et al., J. Physiol., 562, 319-31 (2005)). For recordings, HEK 293T cells were plated onto glass coverslips pretreated with poly-D-lysine (0.1 mg/ml) and rat-tail collagen (0.1 mg/ml; BD Biosciences, San Jose, Calif.) in 35 mm culture dishes at 1-2×10^5 cells per dish. 24 hours after plating, the cells were infected with the GlyR-HSV construct. For infections the growth medium was removed, the cells were washed twice with serum free growth medium, and vHGlyRα1 was added at a multiplicity of infection (MOI) of 10. The cells were then incubated at 37° C. for 1 hour. Following incubation, 1.5 ml of growth medium (with serum) was added and the cells were incubated for an additional 24 hours at 37° C. Recordings were then performed 24 hours post-infection at room temperature. Glycine-mediated whole-cell currents were recorded with an Axopatch 200 amplifier (Molecular Devices, Union City, Calif.) in voltage-clamp mode. Solutions were delivered via an in-house fabricated fast perfusion system (Qian et al., J. Physiol., 538, 65-77 (2002)). The external solution contains (in mM): 140 NaCl, 5 KCl, 2 CaCl2), 1 MgCl2, and 10 HEPES; pH is 7.2+0.05, adjusted with NaOH and osmolality 290+10 adjusted with sucrose as needed. The internal solution contains (in mM): 140 CsCl, 1 CaCl2), 1 MgCl2, 2 MgATP, 10 HEPES, and 10 EGTA; pH is 7.3+0.05, adjusted with CsOH and osmolality 300+0.05. Data were recorded with a Digidata 1322A digitizer under the control of pClamp 9.2 software (Molecular Devices) and all analyses were performed with Clampfit 9.2 (Molecular Devices) or Origin 7.0 (OriginLab, Northampton, Mass.). Percent desensitization was measured as 100×(1−ISS/Ipeak), where ISS and IPeak are the amplitudes of current at steady state and peak, respectively.

[3] = tested on: uninfected HEK 293T cells; settings: uninfected HEK 293T cells (N=4)
Protocol: as §1, with “Solutions were delivered via an in-house fabricated fast perfusion system (Qian et al., J. Physiol., 538, 65-77 (2002)). The external solution contains (in mM): 140 NaCl, 5 KCl, 2 CaCl2), 1 MgCl2, and 10 HEPES; pH is 7.2+0.05, adjusted with NaOH and osmolality 290+10 adjusted with sucrose as needed. The internal solution contains (in mM): 140 CsCl, 1 CaCl2), 1 MgCl2, 2 MgATP, 10 HEPES, and 10 EGTA; pH is 7.3+0.05, adjusted with CsOH and osmolality 300+0.05.” left out

[4] = tested on: formalin-induced nociceptive behavior; assay: rat formalin model of pain; format: in vivo
Protocol: For in vivo studies, rats were subcutaneously injected with vHGlyRα1 or vHG, a control vector without al GlyR, into the plantar surface of the right hind foot. Analgesic effects of viral injections were assessed one week later by subcutaneous injection of formalin.
Specifically, 3-month-old male Sprague-Dawley rats (225-250 g) were injected with 200 μl (1×10^8 plaque forming units) of either vHGlyRα1 or vHG into the plantar surface of the right hind foot. One week later the analgesic properties of the vectors was assessed by subcutaneously injecting 50 μl of 2.5% formalin into the right hind foot and assessing pain-related behaviors as previously described (Goss et al., Gene Ther., 8, 551-6 (2001)). […] The beginning of second phase pain varied between animals from 20 to 40 minutes; this variation was independent of the vector used.

[5] = higher glycine concentration (1 mM)
[6] = lower glycine concentration (50 uM)

SMILES	sensitivity of the receptor to the volatile anesthetic [1]	mean peak current ([2]; 50 uM glycine)	mean peak current ([2]; 1 mM glycine)	10-90% rise time [2, 5]	percent desensitization [2, 5]	10-90% rise time [2, 6]	percent desensitization [2, 6]	current response to application of glycine [3]	nociceptive behavior following glycine application ([4]; vHG transfected animals (control vector))	second phase pain following injection of glycine ([4]; vHGlyRα1-infected animals, 50 μl of 100 mM glycine at the 30 minute time point)
FC(F)OC(F)(F)C(F)Cl (stereo not shown) [enflurane]	greatly enhanced sensitivity									
NCC(=O)O [glycine]		−3.57+0.59 nA	−9.25+1.47 nA	11.4 ± 1.0 ms	89.8+1.1%	265.2 ± 79.1 ms	73.4+7.3%	failed to elicit a current response	small, transient, non-significant dip	significantly reduced
